Reference: PubChem BioAssay (NCI)
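GI50 = concentration required for 50% inhibition of growth. TGI: total growth inhibition.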

Key:
Assay in all cases: growth of human tumour cells (NCI), 384-well format
A498 renal = system: A498 renal
MDA-MB-231 breast = system: MDA-MB-231 breast
SK-OV-3 ovarian = system: SK-OV-3 ovarian
ACHN renal = system: ACHN renal
NCI-H322M lung = system: NCI-H322M lung
UACC-62 melanoma = system: UACC-62 melanoma
OVCAR-4 ovarian = system: OVCAR-4 ovarian
SW-620 colon = system: SW-620 colon
K-562 leukemia = system: K-562 leukemia
HL-60(TB) leukemia = system: HL-60(TB) leukemia
TK-10 renal = system: TK-10 renal
T-47D breast = system: T-47D breast
RXF 393 renal = system: RXF 393 renal
CAKI-1 renal = system: CAKI-1 renal
SF-268 CNS = system: SF-268 CNS
M14 melanoma = system: M14 melanoma
HCT-15 colon = system: HCT-15 colon
UO-31 renal = system: UO-31 renal
HS 578T breast = system: HS 578T breast
NCI/ADR-RES ovarian = system: NCI/ADR-RES ovarian
SNB-75 CNS = system: SNB-75 CNS
SF-295 CNS = system: SF-295 CNS
IGROV1 ovarian = system: IGROV1 ovarian
SNB-19 CNS = system: SNB-19 CNS
OVCAR-8 ovarian = system: OVCAR-8 ovarian
SF-539 CNS = system: SF-539 CNS
NCI-H23 lung = system: NCI-H23 lung
SK-MEL-28 melanoma = system: SK-MEL-28 melanoma
SN12C renal = system: SN12C renal
CCRF-CEM leukemia = system: CCRF-CEM leukemia
HOP-92 NSCLC = system: HOP-92 NSCLC
MOLT-4 leukemia = system: MOLT-4 leukemia
MDA-MB-435 melanoma = system: MDA-MB-435 melanoma
OVCAR-5 ovarian = system: OVCAR-5 ovarian
HCT-116 colon = system: HCT-116 colon
KM12 colon = system: KM12 colon
786-0 renal = system: 786-0 renal
HT29 colon = system: HT29 colon
MALME-3M melanoma = system: MALME-3M melanoma
U251 glioblastoma = system: U251 glioblastoma
LOX IMVI melanoma = system: LOX IMVI melanoma
BT-549 breast = system: BT-549 breast
A549 NSCLC = system: A549 NSCLC
MDA-MB-468 breast = system: MDA-MB-468 breast
PC-3 prostate = system: PC-3 prostate
DU-145 prostate = system: DU-145 prostate
UACC-257 melanoma = system: UACC-257 melanoma
HOP-62 NSCLC = system: HOP-62 NSCLC
OVCAR-3 ovarian = system: OVCAR-3 ovarian
RPMI-8226 leukemia = system: RPMI-8226 leukemia
COLO 205 colon = system: COLO 205 colon
NCI-H226 lung = system: NCI-H226 lung
EKVX NSCLC = system: EKVX NSCLC
MCF7 breast = system: MCF7 breast
NCI-H460 NSCLC = system: NCI-H460 NSCLC
HCC-2998 colon = system: HCC-2998 colon
SK-MEL-5 melanoma = system: SK-MEL-5 melanoma
SR leukemia = system: SR leukemia
NCI-H522 lung = system: NCI-H522 lung

O=c1[nH]c(=O)n(C2CC(O)C(CO)O2)cc1F (configuration not stated)
TGI (A498 renal): 59500 nM
GI50 (MDA-MB-231 breast): 444 nM
GI50 (SK-OV-3 ovarian): 112 nM
GI50 (ACHN renal): 30.2 nM
GI50 (NCI-H322M lung): 345 nM
GI50 (UACC-62 melanoma): 177 nM
GI50 (OVCAR-4 ovarian): 27400 nM
GI50 (SW-620 colon): 28.7 nM
GI50 (K-562 leukemia): 351 nM
TGI (K-562 leukemia): 9400 nM
GI50 (HL-60(TB) leukemia): 25.5 nM
TGI (HL-60(TB) leukemia): 115 nM
GI50 (TK-10 renal): 721 nM
GI50 (T-47D breast): 11500 nM
GI50 (RXF 393 renal): 2920 nM
TGI (RXF 393 renal): 25900 nM
GI50 (CAKI-1 renal): 69.5 nM
GI50 (SF-268 CNS): 13 nM
GI50 (M14 melanoma): 104 nM
GI50 (HCT-15 colon): 55.1 nM
GI50 (UO-31 renal): 26.1 nM
GI50 (HS 578T breast): 28.2 nM
TGI (HS 578T breast): 171 nM
GI50 (NCI/ADR-RES ovarian): 214 nM
GI50 (SNB-75 CNS): 16.9 nM
GI50 (SF-295 CNS): 13.2 nM
TGI (SF-295 CNS): 53.2 nM
GI50 (IGROV1 ovarian): 559 nM
GI50 (SNB-19 CNS): 39.4 nM
GI50 (OVCAR-8 ovarian): 79.8 nM
GI50 (SF-539 CNS): 11.2 nM
TGI (SF-539 CNS): 102 nM
GI50 (NCI-H23 lung): 112 nM
GI50 (SK-MEL-28 melanoma): 101 nM
TGI (SK-MEL-28 melanoma): 3610 nM
GI50 (SN12C renal): 28.9 nM
TGI (SN12C renal): 238 nM
GI50 (CCRF-CEM leukemia): 23.8 nM
TGI (CCRF-CEM leukemia): 97.2 nM
GI50 (HOP-92 NSCLC): 2480 nM
TGI (MOLT-4 leukemia): 15.7 nM
GI50 (MDA-MB-435 melanoma): 1380 nM
GI50 (OVCAR-5 ovarian): 321 nM
GI50 (HCT-116 colon): 52.9 nM
TGI (HCT-116 colon): 40600 nM
GI50 (KM12 colon): 844 nM
GI50 ([…]-0 renal): 69.9 nM
GI50 (HT29 colon): 53.9 nM
GI50 (MALME-3M melanoma): 3990 nM
GI50 (U251 glioblastoma): 112 nM
GI50 (LOX IMVI melanoma): 35.4 nM
TGI (BT-549 breast): 2780 nM
GI50 (A549 NSCLC): 31.8 nM
GI50 (MDA-MB-468 breast): 13.7 nM
TGI (MDA-MB-468 breast): 53.7 nM
GI50 (PC-3 prostate): 90.4 nM
GI50 (DU-145 prostate): 35.9 nM

O=C(Cc1ccc(-c2ccc(OCCN3CCOCC3)cc2)cn1)NCc1ccccc1
GI50 (UACC-257 melanoma): 45.7 nM
TGI (UACC-257 melanoma): 43700 nM
GI50 (A498 renal): 31.8 nM
TGI (A498 renal): 625 nM
GI50 (HOP-62 NSCLC): 29.8 nM
TGI (HOP-62 NSCLC): 3420 nM
GI50 (MDA-MB-231 breast): 53.2 nM
TGI (MDA-MB-231 breast): > 100000 nM
GI50 (SK-OV-3 ovarian): 32.7 nM
TGI (SK-OV-3 ovarian): 2670 nM
GI50 (ACHN renal): 80.1 nM
TGI (ACHN renal): 45100 nM
GI50 (NCI-H322M lung): 38.1 nM
TGI (NCI-H322M lung): 71600 nM
GI50 (OVCAR-4 ovarian): 41.1 nM
TGI (OVCAR-4 ovarian): 39700 nM
GI50 (OVCAR-3 ovarian): 17.4 nM
TGI (OVCAR-3 ovarian): 41.7 nM
GI50 (SW-620 colon): 30.7 nM
TGI (SW-620 colon): > 100000 nM
GI50 (RPMI-8226 leukemia): 14.2 nM
TGI (RPMI-8226 leukemia): 27.7 nM
GI50 (K-562 leukemia): 19.8 nM
TGI (K-562 leukemia): 54.1 nM
GI50 (HL-60(TB) leukemia): 16.1 nM
TGI (HL-60(TB) leukemia): 29.7 nM
GI50 (TK-10 renal): 39.9 nM
TGI (TK-10 renal): 45900 nM
GI50 (RXF 393 renal): 17.5 nM
TGI (RXF 393 renal): 39.7 nM
GI50 (CAKI-1 renal): 40.1 nM
TGI (CAKI-1 renal): > 100000 nM
GI50 (SF-268 CNS): 35.2 nM
TGI (SF-268 CNS): 513 nM
GI50 (M14 melanoma): 18.5 nM
TGI (M14 melanoma): 42.2 nM
GI50 (COLO 205 colon): 16.3 nM
TGI (COLO 205 colon): 34.5 nM
GI50 (HCT-15 colon): 32.1 nM
TGI (HCT-15 colon): 163 nM
GI50 (NCI-H226 lung): 34.6 nM
TGI (NCI-H226 lung): 220 nM
GI50 (EKVX NSCLC): 42.4 nM
TGI (EKVX NSCLC): 99400 nM
GI50 (UO-31 renal): 66.5 nM
TGI (UO-31 renal): > 100000 nM
GI50 (HS 578T breast): 18.6 nM
TGI (HS 578T breast): 38.9 nM
GI50 (NCI/ADR-RES ovarian): 17.7 nM
TGI (NCI/ADR-RES ovarian): 39.3 nM
GI50 (SF-295 CNS): 15.7 nM
TGI (SF-295 CNS): 38 nM
GI50 (IGROV1 ovarian): 61.2 nM
TGI (IGROV1 ovarian): 54400 nM
GI50 (MCF7 breast): 49.9 nM
TGI (MCF7 breast): 7190 nM
GI50 (NCI-H460 NSCLC): 20.2 nM
TGI (NCI-H460 NSCLC): 45.4 nM
GI50 (SNB-19 CNS): 41.3 nM
TGI (SNB-19 CNS): 3110 nM
GI50 (OVCAR-8 ovarian): 31.4 nM
TGI (OVCAR-8 ovarian): 134 nM
GI50 (SF-539 CNS): 21.4 nM
TGI (SF-539 CNS): 53.7 nM
GI50 (NCI-H23 lung): 22.8 nM
TGI (NCI-H23 lung): 60.3 nM
GI50 (SK-MEL-28 melanoma): 38.6 nM
TGI (SK-MEL-28 melanoma): > 100000 nM
GI50 (HCC-2998 colon): 20.4 nM
TGI (HCC-2998 colon): 133 nM
GI50 (SN12C renal): 38.9 nM
TGI (SN12C renal): 16600 nM
GI50 (CCRF-CEM leukemia): 18.4 nM
TGI (CCRF-CEM leukemia): 33.3 nM
GI50 (HOP-92 NSCLC): 38.1 nM
TGI (HOP-92 NSCLC): 2950 nM
GI50 (MOLT-4 leukemia): 15.3 nM
TGI (MOLT-4 leukemia): 29.8 nM
GI50 (MDA-MB-435 melanoma): 15.1 nM
TGI (MDA-MB-435 melanoma): 30.7 nM
GI50 (OVCAR-5 ovarian): 80 nM
TGI (OVCAR-5 ovarian): > 100000 nM
GI50 (SK-MEL-5 melanoma): 20.3 nM
TGI (SK-MEL-5 melanoma): 46.6 nM
GI50 (HCT-116 colon): 31.8 nM
TGI (HCT-116 colon): 709 nM
GI50 (KM12 colon): 30 nM
TGI (KM12 colon): 2010 nM
GI50 ([…]-0 renal): 32.3 nM
TGI (786-0 renal): 220 nM
GI50 (HT29 colon): 28.3 nM
TGI (HT29 colon): > 100000 nM
GI50 (U251 glioblastoma): 32 nM
TGI (U251 glioblastoma): 150 nM
GI50 (LOX IMVI melanoma): 49.8 nM
TGI (LOX IMVI melanoma): 298 nM
GI50 (BT-549 breast): 28.3 nM
TGI (BT-549 breast): 179 nM
GI50 (SR leukemia): 12.3 nM
TGI (SR leukemia): 25.6 nM
GI50 (A549 NSCLC): 50.2 nM
TGI (A549 NSCLC): > 100000 nM
GI50 (MDA-MB-468 breast): 15.6 nM
TGI (MDA-MB-468 breast): 30.6 nM
GI50 (PC-3 prostate): 34.5 nM
TGI (PC-3 prostate): > 100000 nM
GI50 (DU-145 prostate): 30.2 nM
TGI (DU-145 prostate): 174 nM
GI50 (NCI-H522 lung): 17.6 nM
TGI (NCI-H522 lung): 44.9 nM
